Measurements from patent US11739074B2, “Ras inhibitors” (Revolution Medicines, Inc., priority 2019, dated 2023).
Like-named read-outs stand apart in the source and are kept apart here.

Columns and labels:
[1] = tested on: AsPC-1 (K-Ras G12D); test: CellTiter-Glo cell viability assay, AsPC-1; assay type: cell-based; conditions: Homo sapiens, ASPC1, 120 h, read-out: AsPC-1 Cell Viability IC50
Summary of the method: (§1)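 Cells already in plates received compound by direct dispensing. After incubation to day 5, plates sat at room temperature roughly 30 minutes, then ATP-based luminescence was measured and values derived from a four-parameter fit of DMSO-normalized data.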

[2] = target: KRAS G13D (Homo sapiens, UniProt P01116+P62937, G13D); test: Ras-Raf disruption/FRET/MOA assay, KRAS G13D; assay type: biochemical; conditions: disruption of BRAF RBD binding, with Cyclophilin A; read-out: KRAS G13D FRET IC50
Sequence of KRAS G13D (P01116 1-169 isoform P01116-2 G13D limits assumed): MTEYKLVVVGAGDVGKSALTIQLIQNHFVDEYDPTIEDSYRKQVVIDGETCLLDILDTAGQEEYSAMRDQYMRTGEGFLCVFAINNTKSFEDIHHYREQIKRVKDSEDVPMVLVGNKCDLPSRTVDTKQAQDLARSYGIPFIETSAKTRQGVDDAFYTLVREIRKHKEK
Sequence of KRAS G13D (P62937 whole entry): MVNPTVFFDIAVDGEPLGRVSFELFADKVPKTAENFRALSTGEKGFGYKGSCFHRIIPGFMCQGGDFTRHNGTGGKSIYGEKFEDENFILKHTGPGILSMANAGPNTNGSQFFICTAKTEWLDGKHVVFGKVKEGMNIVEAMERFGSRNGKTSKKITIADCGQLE
Summary of the method: (§2)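 Buffer 25 mM HEPES pH 7.3, 100 mM NaCl, 5 mM MgCl2, 0.1% BSA, 0.002% Tween20; His6-KRAS-GMPPNP 12.5 nM, CypA 25 μM, GST-BRAF^RBD 50 nM; cpd 10-pt 3-fold from 30 μM; 3 h 25° C; then Eu/APC antibodies 1.5 h; TR-FRET ratio vs DMSO.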

[3] = target: KRAS Q61H (Homo sapiens, UniProt P01116+P62937, Q61H); test: Ras-Raf disruption/FRET/MOA assay, KRAS Q61H; assay type: biochemical; conditions: KRAS Q61H; read-out: KRAS Q61H FRET data IC50
Sequence of KRAS Q61H (P01116 1-169 isoform P01116-2 Q61H limits assumed): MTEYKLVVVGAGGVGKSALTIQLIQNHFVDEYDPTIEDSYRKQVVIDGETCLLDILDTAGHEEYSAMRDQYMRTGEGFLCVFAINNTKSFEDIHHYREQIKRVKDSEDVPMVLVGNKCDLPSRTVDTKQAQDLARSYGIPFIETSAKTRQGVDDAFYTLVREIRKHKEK
Sequence of KRAS Q61H (P62937 whole entry, the tested form may be a part): as the sequence (P62937 whole entry) above
Excerpt: (§3) Disruption of B-Raf Ras-Binding Domain (BRAF^RBD) Interaction with K-Ras by Compounds of the Invention (Also Called a FRET Assay or an MOA Assay)
(§4) Note—The following protocol describes a procedure for monitoring disruption of K-Ras G12C (GMP-PNP) binding to BRAF^RBD by a compound of the invention. This protocol may also be executed substituting other Ras proteins or nucleotides, such as K-Ras G12D and K-Ras G13D.
(§5) The purpose of this biochemical assay was to measure the ability of test compounds to facilitate ternary complex formation between a nucleotide-loaded K-Ras isoform and Cyclophilin A; the resulting ternary complex disrupts binding to a BRAF^RBD construct, inhibiting K-Ras signaling through a RAF effector.
(§6) In assay buffer containing 25 mM HEPES pH 7.3, 0.002% Tween20, 0.1% BSA, 100 mM NaCl and 5 mM MgCl2, tagless Cyclophilin A, His6-K-Ras-GMPPNP, and GST-BRAF^RBD were combined in a 384-well assay plate at final concentrations of 25 μM, 12.5 nM, and 50 nM, respectively. Compound was present in plate wells as a 10-point 3-fold dilution series starting at a final concentration of 30 μM. After incubation at 25° C. for 3 hours, a mixture of anti-His Eu-W1024 and anti-GST allophycocyanin was then added to assay sample wells at final concentrations of 10 nM and 50 nM, respectively, and the reaction incubated for an additional 1.5 hours. […] Compounds that facilitate disruption of a K-Ras:RAF complex were identified as those eliciting a decrease in the TR-FRET ratio relative to DMSO control wells.

[4] = target: T1, NRAS Q61R (Homo sapiens, UniProt P01111+P62937, Q61R); test: Ras-Raf disruption/FRET/MOA assay, NRAS Q61R; assay type: biochemical
T1 construct: His6
T1 sequence (P01111 whole entry Q61R): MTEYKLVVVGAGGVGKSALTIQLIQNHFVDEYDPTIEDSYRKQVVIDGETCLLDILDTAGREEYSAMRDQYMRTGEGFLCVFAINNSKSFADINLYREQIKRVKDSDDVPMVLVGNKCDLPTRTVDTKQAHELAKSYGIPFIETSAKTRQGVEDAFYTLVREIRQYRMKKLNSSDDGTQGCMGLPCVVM
T1 sequence (P62937 whole entry): as the sequence (P62937 whole entry) above
Excerpt: as §3, §4, §5, §6

[5] = target: KRAS WT (Homo sapiens, UniProt P01116+P62937); test: Ras-Raf disruption/FRET/MOA assay, KRAS WT; assay type: biochemical; conditions: disruption of BRAF RBD binding, with Cyclophilin A; read-out: KRAS WT FRET IC50
Sequence of KRAS WT (P01116 1-169 isoform P01116-2 limits assumed): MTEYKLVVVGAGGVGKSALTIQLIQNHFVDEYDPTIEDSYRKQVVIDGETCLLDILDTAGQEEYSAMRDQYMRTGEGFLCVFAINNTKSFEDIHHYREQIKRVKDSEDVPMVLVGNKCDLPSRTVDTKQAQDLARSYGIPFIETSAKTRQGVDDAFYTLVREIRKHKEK
Sequence of KRAS WT (P62937 whole entry): as the sequence (P62937 whole entry) above
Summary of the method: as §2

[6] = target: T2, NRAS G12C (Homo sapiens, UniProt P01111+P62937, G12C); test: Ras-Raf disruption/FRET/MOA assay, NRAS G12C; assay type: biochemical
T2 construct: His6
T2 sequence (P01111 whole entry G12C): as the sequence (P01111 whole entry Q61R) above, with G12C, R61Q counted along it
T2 sequence (P62937 whole entry): as the sequence (P62937 whole entry) above
Summary of the method: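 Disruption of Ras:RAF binding was read as a drop in TR-FRET ratio versus DMSO controls. The buffer was 25 mM HEPES pH 7.3, 0.002% Tween20, 0.1% BSA, 100 mM NaCl and 5 mM MgCl2. Compounds were tested as a 10-point 3-fold dilution series from 30 μM. Detection used 10 nM anti-His Eu-W1024 and 50 nM anti-GST allophycocyanin.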

[7] = target: T3, NRAS Q61K (Homo sapiens, UniProt P01111+P62937, Q61K); test: Ras-Raf disruption/FRET/MOA assay, NRAS Q61K; assay type: biochemical
T3 construct: His6
T3 sequence (P01111 whole entry Q61K): as the sequence (P01111 whole entry Q61R) above, with R61K counted along it
T3 sequence (P62937 whole entry): as the sequence (P62937 whole entry) above
Excerpt: as §3, §4, §5, §6

[8] = target: KRAS G12C (Homo sapiens, UniProt P01116+P62937, G12C); test: Ras-Raf disruption/FRET/MOA assay, KRAS G12C; assay type: biochemical; conditions: disruption of BRAF RBD binding, with Cyclophilin A; read-out: KRAS G12C FRET IC50
Sequence of KRAS G12C (P01116 1-169 isoform P01116-2 G12C limits assumed): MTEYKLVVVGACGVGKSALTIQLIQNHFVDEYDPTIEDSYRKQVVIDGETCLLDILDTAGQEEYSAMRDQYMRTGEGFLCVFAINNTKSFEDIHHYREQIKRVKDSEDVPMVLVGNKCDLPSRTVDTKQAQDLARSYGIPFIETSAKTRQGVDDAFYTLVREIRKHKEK
Sequence of KRAS G12C (P62937 whole entry): as the sequence (P62937 whole entry) above
Summary of the method: as §2

[9] = target: KRAS G12V (Homo sapiens, UniProt P01116+P62937, G12V); test: Ras-Raf disruption/FRET/MOA assay, KRAS G12V; assay type: biochemical; conditions: disruption of BRAF RBD binding, with Cyclophilin A; read-out: KRAS G12V FRET IC50
Sequence of KRAS G12V (P01116 1-169 isoform P01116-2 G12V limits assumed): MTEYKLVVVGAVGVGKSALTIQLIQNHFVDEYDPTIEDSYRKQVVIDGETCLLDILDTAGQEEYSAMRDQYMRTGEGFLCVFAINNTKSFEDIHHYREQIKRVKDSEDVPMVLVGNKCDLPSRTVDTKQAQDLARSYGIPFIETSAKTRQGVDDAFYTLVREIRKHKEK
Sequence of KRAS G12V (P62937 whole entry): as the sequence (P62937 whole entry) above
Summary of the method: as §2

[10] = target: T4, NRAS WT (Homo sapiens, UniProt P01111+P62937); test: Ras-Raf disruption/FRET/MOA assay, NRAS WT; assay type: biochemical
T4 construct: His6
T4 sequence (P01111 whole entry): as the sequence (P01111 whole entry Q61R) above, with R61Q counted along it
T4 sequence (P62937 whole entry): as the sequence (P62937 whole entry) above
Excerpt: as §3, §4, §5, §6

[11] = target: KRAS G12D (Homo sapiens, UniProt P01116+P62937, G12D); test: Ras-Raf disruption/FRET/MOA assay, KRAS G12D; assay type: biochemical; conditions: disruption of BRAF RBD binding, with Cyclophilin A; read-out: KRAS G12D FRET IC50
Sequence of KRAS G12D (P01116 1-169 isoform P01116-2 G12D limits assumed): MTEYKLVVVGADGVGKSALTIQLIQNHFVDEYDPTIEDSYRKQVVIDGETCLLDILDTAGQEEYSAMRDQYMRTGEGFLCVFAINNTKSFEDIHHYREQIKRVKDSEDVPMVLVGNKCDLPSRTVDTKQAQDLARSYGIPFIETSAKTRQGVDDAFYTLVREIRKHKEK
Sequence of KRAS G12D (P62937 whole entry): as the sequence (P62937 whole entry) above
Summary of the method: as §2

[12] = target: KRAS G13C (Homo sapiens, UniProt P01116+P62937, G13C); test: Ras-Raf disruption/FRET/MOA assay, KRAS G13C; assay type: biochemical; conditions: disruption of BRAF RBD binding, with Cyclophilin A; read-out: KRAS G13C FRET IC50
Sequence of KRAS G13C (P01116 1-169 isoform P01116-2 G13C limits assumed): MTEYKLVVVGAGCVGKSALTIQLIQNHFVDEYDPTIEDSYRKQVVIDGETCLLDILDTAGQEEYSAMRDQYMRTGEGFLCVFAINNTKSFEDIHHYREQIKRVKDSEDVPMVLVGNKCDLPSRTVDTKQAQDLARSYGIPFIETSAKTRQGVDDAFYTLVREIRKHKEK
Sequence of KRAS G13C (P62937 whole entry): as the sequence (P62937 whole entry) above
Summary of the method: as §2

[13] = target: KRAS G12S (Homo sapiens, UniProt P01116+P62937, G12S); test: Ras-Raf disruption/FRET/MOA assay, KRAS G12S; assay type: biochemical; conditions: disruption of BRAF RBD binding, with Cyclophilin A; read-out: KRAS G12S FRET IC50
Sequence of KRAS G12S (P01116 1-169 isoform P01116-2 G12S limits assumed): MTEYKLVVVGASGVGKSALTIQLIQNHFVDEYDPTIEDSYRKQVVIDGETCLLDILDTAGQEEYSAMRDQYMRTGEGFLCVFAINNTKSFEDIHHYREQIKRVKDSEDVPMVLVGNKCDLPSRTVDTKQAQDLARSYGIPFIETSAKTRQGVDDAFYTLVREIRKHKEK
Sequence of KRAS G12S (P62937 whole entry): as the sequence (P62937 whole entry) above
Summary of the method: as §2

[14] = tested on: AsPC-1 (K-Ras G12D); test: Potency assay: pERK in AsPC-1 cells; assay type: cell-based; conditions: Homo sapiens, ASPC1; AsPC-1 cells, K-Ras G12D; read-out: pERK EC50 (AsPC-1 KRAS G12D)
[15] = tested on: NCI-H358 (K-Ras G12C); test: CellTiter-Glo cell viability assay, H358; assay type: cell-based; conditions: Homo sapiens, NCI-H358, 120 h, NCI-H358, K-Ras G12C, 5-day treatment; read-out: H358 Cell Viability IC50
Summary of the method: as §1

[16] = NRAS Q61R, read-out: NRAS Q61R FRET data IC50
[17] = NRAS G12C, read-out: NRAS G12C FRET data IC50
[18] = NRAS Q61K, read-out: NRAS Q61K FRET data IC50
[19] = NRAS WT, read-out: NRAS WT FRET data IC50
[20] = AsPC-1, K-Ras G12D, 5-day treatment

Row | Structure (SMILES) | IC50 [1] [nM] | IC50 [2] [nM] | IC50 [3] [nM] | IC50 [4, 16] [nM] | IC50 [5] [nM] | IC50 [6, 17] [nM] | IC50 [7, 18] [nM] | IC50 [8] [nM] | IC50 [9] [nM] | IC50 [10, 19] [nM] | IC50 [11] [nM] | IC50 [12] [nM] | IC50 [13] [nM] | IC50 [1, 20] [nM] | EC50 [14] [nM] | IC50 [4] [nM] | IC50 ([6]; NRAS G12C FRET data IC50, NRAS G12C) [nM] | IC50 [7] [nM] | IC50 [10] [nM] | IC50 [15] [nM]
1 | CCn1c(-c2cnccc2COC)c2c3cc(ccc31)-c1cc(O)cc(c1)C[C@H](NC(=O)[C@H](C(C)C)N(C)C(=O)CN(C)C(=O)[C@@H]1CN1S(C)(=O)=O)C(=O)N1CCC[C@H](N1)C(=O)OCC(C)(C)C2 (stereo partly shown) [Compound 37] | > 10000 | 100 to 1000 | 10 to 100 | 100 to 1000 | 10 to 100 | 10 to 100 | 100 to 1000 | 10 to 100 | 100 to 1000 | 10 to 100 | 100 to 1000 | 10 to 100 | 10 to 100 |  |  |  |  |  |  | 
2 | CCn1c(-c2cccnc2[C@H](C)OC)c2c3cc(ccc31)-c1cc(O)cc(c1)C[C@H](NC(=O)[C@H](C1CCCC1)N1CC[C@@]3(CCN(C(=O)[C@@H]4N[C@@H]4C4CC4)C3)C1=O)C(=O)N1CCC[C@H](N1)C(=O)OCC(C)(C)C2 [Compound 215] |  | 100 to 1000 | 10 to 100 | 1000 to 10000 | 100 to 1000 | 10 to 100 | 1000 to 10000 | 10 to 100 | 100 to 1000 | 100 to 1000 | 100 to 1000 | 10 to 100 | 100 to 1000 | 1000 to 10000 | < 5000 |  |  |  |  | 
3 | CCn1c(-c2cccnc2[C@H](C)OC)c2c3cc(ccc31)-c1cc(O)cc(c1)C[C@H](NC(=O)[C@H](C(C)C)N1CO[C@@]3(CCN(C(=O)[C@H]4CN4)C3)C1=O)C(=O)N1CCC[C@H](N1)C(=O)OCC(C)(C)C2 [Compound 232] |  | 100 to 1000 | 10 to 100 | 100 to 1000 | 100 to 1000 | 10 to 100 | 100 to 1000 | 10 to 100 | 100 to 1000 | 100 to 1000 | 1000 to 10000 | 10 to 100 | 100 to 1000 | 1000 to 10000 | < 5000 |  |  |  |  | 
4 | CCn1c(-c2cccnc2[C@H](C)OC)c2c3cc(ccc31)-c1cc(cc(C(F)F)c1)C[C@H](NC(=O)[C@H](C1CCCC1)N1CC[C@]3(CCN(C(=O)[C@H]4CN4)C3)C1=O)C(=O)N1CCC[C@H](N1)C(=O)OCC(C)(C)C2 [Compound 233] |  | 1000 to 10000 | 100 to 1000 | > 10000 | 1000 to 10000 | 100 to 1000 | 1000 to 10000 | 100 to 1000 | 1000 to 10000 | 1000 to 10000 | 1000 to 10000 | 100 to 1000 | 1000 to 10000 | 1000 to 10000 | < 5000 |  |  |  |  | 
5 | CCn1c(-c2cccnc2[C@H](C)OC)c2c3cc(ccc31)-c1cc(O)cc(c1)C[C@H](NC(=O)C(C(C)C)N(C)C(=O)[C@@]1(C)CCCN1C(=O)[C@H]1CN1)C(=O)N1CCC[C@H](N1)C(=O)OCC(C)(C)C2 (stereo partly shown) [Compound 240] |  |  |  |  |  |  |  |  |  |  |  |  |  | 1000 to 10000 | < 5000 | 1000 to 10000 | 100 to 1000 | > 10000 | 1000 to 10000 | 
6 | CCn1c(-c2cccnc2[C@H](C)OC)c2c3cc(ccc31)-c1cc(O)cc(c1)C[C@H](NC(=O)[C@H](C(C)C)N1CCCC3(CN(C(=O)[C@@H]4CN4)C3)C1=O)C(=O)N1CCC[C@H](N1)C(=O)OCC(C)(C)C2 [Compound 306] |  | 10 to 100 | 10 to 100 | 100 to 1000 | 10 to 100 | < 10 | 100 to 1000 | < 10 | 10 to 100 | 10 to 100 | 100 to 1000 | 10 to 100 | 10 to 100 | 1000 to 10000 | < 5000 |  |  |  |  | 
7 | CCn1c(-c2cccnc2[C@H](C)OC)c2c3cc(ccc31)-c1cccc(c1)C[C@H](NC(=O)[C@H](C1CCCC1)N1CC[C@]3(CCN(C(=O)[C@@H]4N[C@@H]4C4CC4)C3)C1=O)C(=O)N1CCC[C@H](N1)C(=O)OCC(C)(C)C2 [Compound 313] |  |  | 100 to 1000 |  |  |  |  |  |  |  |  |  |  | 10 to 100 | < 5000 |  |  |  |  | 100 to 1000
